US12357606B2, “Compositions and methods for treating defects in avascular cartilaginous tissue by directly administering one or more metabolites of simvastatin” (University of Cincinnati, priority 2017, dated 2025)

Tests used:
[1] = system: BMP-2 mRNA expression in rat NP cells; assay: BMP-2 mRNA expression in rat NP cells cultured in alginate beads (RT-qPCR); type: cell-based; settings: for BMP-2 mRNA expression with a GGTase inhibitor, level compared with SV: single GGTase inhibitor
Excerpt: Data are normalized with GAPDH and are expressed as ratio to vehicle (DMSO).
Findings from the investigation on SV stimulating endogenous BMP-2 expression in the treated NP cells, which in turn increases chondrogenic phenotype expression (aggrecan and type II collagen mRNA expression as well as sGAG content), were consistent with the above observations, validating that the small molecule is as efficacious in promoting chondrogenesis as to osteogenesis. […] SV has been prescribed widely for the treatment of hypercholesterolaemia and hypertriglyceridaemia. In humans, it undergoes rapid metabolism to form four major oxidative, NADPH-dependent metabolites, 3′-hydroxy SV (hSV), 6′-exomethylene SV (eSV), 3′,5′-dihydrodiol SV (dSV), and SVA (FIG. 5). […] This raised the question as to whether SVA is dominant in the entire scheme of BMP-2 upregulation. To test whether the levels of induced-BMP-2 by both SV and SVA, respectively, would be any different, the present investigators used the in vitro model system developed in the prior study to conduct the test. Rat NP cells harvested from tail discs were cultured initially in monolayer and then in alginate beads (Zhang H. et al. Spine, 2008; 33(16), the entire disclosure of which is incorporated herein by reference). Cells were treated with DMSO (vehicle), SV or SVA at 1 or 3 μM. Cells were then collected at pre-determined time points and with RNA extracted. Gene expression was analyzed by RT-qPCR. […] The BMP-2 level induced in the SVA group was 5-6 times higher than that in the SV one (FIG. 1A).
The classic mechanism understood for cholesterol lowering by statins is that statins act by competitively inhibiting HMG-CoA reductase, the first committed enzyme of the mevalonate (MVA) pathway. This competition reduces the rate by which HMG-CoA reductase is able to produce MVA, the next molecule in the cascade for the synthesis of prenylation enzyme substrates FPP and GGPP that eventually help produce cholesterol. As indicated previous studies by the inventors (Zhang H. N., Lin C. Y. Spine. 2008; 33(16), fully incorporated herein by reference), when SV was present, BMP-2 mRNA expression of NP cells always responded in a time and dose-dependent manner.

avascular tissue = assay: Regeneration of avascular tissue upon direct administration; settings: for regeneration on administration: non-HMG-CoA reductase inhibitor metabolites
BMP-2 = settings: non-HMG-CoA reductase inhibitor metabolites
mevalonate conversion = assay: Inhibition of mevalonate conversion; type: biochemical

| Compound | BMP-2 mRNA expression with a GGTase inhibitor, level compared with SV [1] | regeneration on administration (avascular tissue) | effect on BMP-2 upregulation (BMP-2) | other results |
| --- | --- | --- | --- | --- |
| COC(=O)[C@H](CC(C)C)NC(=O)c1ccc(NC[C@@H](N)CS)cc1-c1ccccc1 [GGTI-286, reference compound] | able to increase BMP-2 mRNA expression, but the level was much lower than that found with SV | – | – | – |
| CCC(C)(C)C(=O)OC1CC(C)C(O)C2=CC(O)C(C)C(CCC3CC(O)CC(=O)O3)C21 (centres unmarked) [dSV, 3′,5′-dihydrodiol simvastatin] | – | promoted a degree of regeneration | also affect BMP-2 upregulation | – |
| 3′-hydroxy simvastatin [hSV] | – | promoted a degree of regeneration | also affect BMP-2 upregulation | – |
| C=C(C)[C@@H]1CC=C(CO)CC1 [POH, reference compound] | able to increase BMP-2 mRNA expression, but the level was much lower than that found with SV | – | – | – |
| CCC(C)(C)C(=O)O[C@H]1C[C@@H](C)C=C2C=C[C@H](C)[C@H](CC[C@@H](O)C[C@@H](O)CC(=O)O)[C@H]21 [SVA, simvastatin beta-hydroxy acid] | – | – | – | mRNA expression of BMP-2 in cells treated with SVA compared to cells treated with SV ([1]; 1 μM, Day 1 to 3, rat NP cells): the same or doubled; BMP-2 level induced in the SVA group relative to the SV group ([1]; 1 μM, Day 7, rat NP cells): 5-6 times; difference in BMP-2 level between SVA and SV ([1]; 3 μM, rat NP cells): further augmented; inhibition of mevalonate conversion compared with SV (mevalonate conversion): more efficiently than SV; anabolic effect relative to SV alone (avascular tissue; regeneration of avascular tissue upon direct administration): 5-6 times |
